Experiment [1] in a line: DPPH free radical scavenging. The following applies: mean ± SD (n = 3). The method, then: The effect of target compounds and vitamin C to scavenge the DPPH free radical was evaluated with the method described by Villano et al.[43] with slight modifications.
Two millilitres of different concentrations of the sample solution was added to 2.0 ml of DPPH solution (0.04 mg/mL), shaken and allowed to react at room temperature for 30 min. The absorbance value was measured at 517 nm with an ultraviolet-visible spectrophotometer. The blank reference cuvette contained absolute ethanol. All measurements were performed in triplicate. IC50 values were calculated. The percentage of DPPH radical scavenging rate of the target compound is calculated as follows: DPPH free radical scavenging effect (%)=[A0−(A1−A2)]/A0×100% where A0 is the absorbance of 2.0 ml DPPH solution +2.0 ml absolute ethanol; A1 is the absorbance of 2.0 ml DPPH solution +2.0 ml 3-arylcoumarins solution or standard; A2 is the absorbance of 2.0 ml 3-arylcoumarins solution or standard +2.0 ml absolute ethanol.
Background: Loss of DPPH colour is used to gauge radical scavenging.

Experiment [2] in a line: hydroxyl radical scavenging. The following applies: mean ± SD (n = 3), read-out: OH IC50 Value. The method, then:
The ability of the target compounds and vitamin C to scavenge the hydroxyl radical was evaluated with method described by Ismaili et al.[29] with slight modifications. In test tube, 1.0 ml H2O2 solution (0.03%), 1.0 ml FeSO4 solution (2 mmol.L^−1), 1.0 ml salicylic acid solution (10 mmol.L^−1) and 1.0 ml of 3-arylcoumarins and standard water solution with different concentration (0.4–2.0 mg/mL) were mixed. Finally, 1.0 ml H2O2 solution (0.03%) was added to this mixture to start the reaction. Solutions were kept at 37 °C. After 30 min, the absorbance was measured at 510 nm against the reagent blank, where the distilled water was substituted for the H2O2 solution. The percentage of OH scavenging by target compounds and vitamin C was calculated the following equation: OH scavenging effect (%)=[A0−(A1−A2)]/A0×100% where A0 is the absorbance of 1.0 ml distilled water +1.0 ml H2O2 + 1.0 ml FeSO4 + 1.0 ml salicylic acid +1.0 ml H2O2; A1 is the absorbance of 1.0 ml 3-arylcoumarins or standard +1.0 ml H2O2 + 1.0 ml FeSO4 + 1.0 ml salicylic acid +1.0 ml H2O2; A2 is the absorbance of 1.0 ml 3-arylcoumarins or standard +1.0 ml H2O2 + 1.0 ml FeSO4 + 1.0 ml absolute absolute ethanol +1.0 ml H2O2.

Another experiment deals with T1, α-Glucosidase (Saccharomyces cerevisiae, UniProt P53341).
T1 construct: purchased Sigma Aldrich G0660-750UN
Description: biochemical. In kind it is biochemical. On the procedure:
α-Glucosidase (G0660-750UN, Sigma Aldrich) and 4-Nitrophenyl α-D-glucopyranoside (PNPG, Macklin) were dissolved in phosphate buffer (pH 6.8, 100 mM), and the test compounds were dissolved in DMSO solution. The experiment was divided into blank group, control group, sample blank group, and sample group. The reagents were loaded in 96-well plates at the dose of the table (Table 8). The solution was bathed in 37 °C water for 10 min, and then enzyme solution was added. After reaction at 37 °C for 20 min, 70 μL Na2CO3 solution ([…]) was added to stop the reaction. All experiments were run in triplicate. […] Since PNPG can produce glucose and p-Nitrophenol (PNP) under the action of α-glucosidase, PNP has the greatest absorption at 405 nm. The absorbance was determined by the microplate reader, and the inhibition rate of α-glucosidase and the IC50 value of each sample were calculated according to the formula. Inhibition rate %={[(AC−AB)−(AS−ASB)]/(AC−AB)}×100% where AC is the absorbance of control group; AB is the absorbance of blank group; AS is the absorbance of sample group; ASB is the absorbance of sample blank group.

The subject of the next experiment is AGEs formation. Put plainly: In vitro inhibitory activity of AGEs formation (bovine serum albumin/glucose). The class given is biochemical. The following applies: mean ± SD (n = 3). On the procedure:
To prepare the AGEs reaction solution, 10 mg/mL of bovine serum albumin in 50 mM PBS (pH 7.4) was added to 0.2 M glucose, and 0.02% sodium azide was added to prevent bacterial growth. The reaction mixture (3.0 ml) was then mixed with various concentrations (0.5–1000 μg/mL) of the target compounds (1.0 ml) dissolved in DMSO. After incubating at 37 °C for 14 d, the fluorescence intensity of AGE was determined by a fluorospectrophotometer (PE, USA) with excitation and emission wavelengths at 350 nm and 420 nm, respectively. All experiments were run in triplicate. Aminoguanidine hydrochloride was used as a reference compound. The inhibition rate of AGEs formation and the IC50 value of each sample were calculated according to the formula. Inhibition rate %={[(AC−AB)−(AS−ASB)]/(AC−AB)}×100% where AC is the absorbance of control group(1.0 ml glucose +1.0 ml bovine serum albumin +1.0 ml sodium azide +1.0 ml DMSO); AB is the absorbance of blank group(1.0 ml PBS +1.0 ml bovine serum albumin +1.0 ml sodium azide +1.0 ml DMSO); AS is the absorbance of sample group (1.0 ml glucose +1.0 ml bovine serum albumin +1.0 ml sodium azide +1.0 ml target compound solution or Aminoguanidine hydrochloride solution); ASB is the absorbance of sample blank group (1.0 ml PBS +1.0 ml bovine serum albumin +1.0 ml sodium azide +1.0 ml target compound solution or Aminoguanidine hydrochloride solution).

For a further experiment, the system named is STZ-diabetic mice. Description: Acute hypoglycemic assay in STZ-diabetic mice. The following applies: for Blood glucose concentration / % Variation of glycemia: STZ-diabetics mice, 10 mg/kg of bw per os. The class given is in vivo. The method, then:
Type II diabetes mellitus was induced in mice by a single intraperitoneal injection of freshly prepared STZ (Sigma Aldrich) dissolved in 0.1M citrate buffer, pH 4.5, in a volume of 110 mg/kg of bw. After 7 days of STZ administration, blood glucose levels of each mouse were determined. Mice with blood glucose levels higher than 11 mM were considered diabetic and were included in the study.
(§1) STZ-induced diabetic mice and normal mice were placed in single cages with wire-net floors and deprived of food for 12 h before experimentation but allowed free access to tap water throughout. The compounds (at the doses of 10, 30, and 100 mg/kg of bw) were suspended in 0.05% Tween-80 in saline solution. Glibenclamide (10 mg/kg of bw) was suspended in the same vehicle. The target compounds were freshly prepared immediately before experimentation and administered by the intragastrical route at the doses of 10 ml/kg of bw. Control mice received only the vehicle (0.05% Tween-80 in saline solution) by the same route. Blood glucose levels were measured at 0, 1.5, 3, 5, 7, and 9 h after drugs administration.

The next experiment deals with normal mice. Put plainly: Acute hypoglycemic assay in normal mice. In kind it is in vivo. The following applies: 10 mg/kg of bw per os. On the procedure:
as §1

The mark [3] stands for this setting: mean ± SD (n = 3), read-out: α-Glucosidase inhibitory activity IC50 Value.

Where two headings read alike, the source gives them in different places.

T1 sequence (P53341 whole entry): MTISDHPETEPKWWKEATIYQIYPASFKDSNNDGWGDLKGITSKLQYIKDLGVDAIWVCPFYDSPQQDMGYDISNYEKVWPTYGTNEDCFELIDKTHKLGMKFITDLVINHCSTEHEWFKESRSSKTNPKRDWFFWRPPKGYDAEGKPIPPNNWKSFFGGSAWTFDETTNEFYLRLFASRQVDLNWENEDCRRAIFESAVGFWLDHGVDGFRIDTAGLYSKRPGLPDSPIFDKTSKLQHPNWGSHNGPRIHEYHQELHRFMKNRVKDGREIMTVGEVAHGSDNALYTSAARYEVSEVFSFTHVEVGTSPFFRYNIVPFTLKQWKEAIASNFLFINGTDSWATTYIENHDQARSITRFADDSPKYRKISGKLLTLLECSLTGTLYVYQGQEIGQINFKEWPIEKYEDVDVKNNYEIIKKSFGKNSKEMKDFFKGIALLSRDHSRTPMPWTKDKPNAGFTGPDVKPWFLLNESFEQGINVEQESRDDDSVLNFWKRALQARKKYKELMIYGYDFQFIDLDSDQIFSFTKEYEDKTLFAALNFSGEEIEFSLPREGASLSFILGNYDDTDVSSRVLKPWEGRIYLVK

Turning to `O=c1oc2ccccc2cc1-c1ccc(O)cc1` [Compound 6, 3-(4-Hydroxyphenyl)-coumarin], the IC50 (in general, the concentration needed to halve the response being measured) was more than 1000 µM in experiment [1], more than 1000 µM in experiment [2], 60.88 ± 0.55 µM at α-Glucosidase (setting [3]) and more than 1000 µM in the experiment on AGEs formation.
As for `Cc1ccc(-c2cc3ccc(O)cc3oc2=O)cc1` [Compound 9, 7-Hydroxy-3-(4-methylphenyl)-coumarin], the IC50 in experiment [1] was 60.2 ± 1.27 µM; in experiment [2] it was more than 1000 µM; at α-Glucosidase (setting [3]), 118 ± 41.5 µM; with AGEs formation, more than 1000 µM.
On to `O=c1oc2cc(O)ccc2cc1-c1ccc(O)cc1` [Compound 12, 7-Hydroxy-3-(4-hydroxyphenyl)-coumarin], for which the results for the IC50 (in experiment [1]; in experiment [2]; at α-Glucosidase (setting [3])) were 756 ± 8.31 µM, more than 1000 µM and 19.9 ± 3.39 µM, respectively.
Consider `O=c1oc2c(O)cccc2cc1-c1ccc(O)cc1` [Compound 14, 8-Hydroxy-3-(4-hydroxyphenyl)-coumarin], for which the IC50 in experiment [1] is 167 ± 2.01 µM; in experiment [2] it was more than 1000 µM; at α-Glucosidase it was 213 ± 40.3 µM; in the experiment with AGEs formation, 45.2 ± 5.28 µM.
Turning to `O=c1oc2cc(O)ccc2cc1-c1ccc(F)cc1` [Compound 18, 7-Hydroxy-3-(4-fluorophenyl)-coumarin], the IC50 in experiment [1] is more than 1000 µM; in experiment [2] it was more than 1000 µM; at α-Glucosidase (setting [3]), 86.9 ± 1.17 µM; in the experiment with AGEs formation, 20.6 ± 0.39 µM.
As for `COc1ccc(-c2cc3cccc(O)c3oc2=O)cc1` [Compound 22, 8-Hydroxy-3-(4-methoxyphenyl)-coumarin], the IC50 in experiment [1] was 15.63 ± 0.11 µM; in experiment [2] it was more than 1000 µM; on α-Glucosidase it was more than 1000 µM; in the experiment on AGEs formation, 23.1 ± 0.82 µM.
As to `COc1ccc(-c2cc3ccc(O)cc3oc2=O)cc1` [Compound 24, 7-Hydroxy-3-(4-methoxyphenyl)-coumarin], the IC50 in experiment [1] was 53.9 ± 1.83 µM; in experiment [2] it was more than 1000 µM; at α-Glucosidase (setting [3]), 27.42 ± 0.11 µM; with AGEs formation, more than 1000 µM.
Regarding `O=c1oc2c(O)c(O)ccc2cc1-c1ccc(O)c(O)c1` [Compound 36, 7,8-Dihydroxy-3-(3,4-dihydroxyphenyl)-coumarin], the IC50 was found to be 1.33 ± 0.03 µM in experiment [1], 244 ± 11.8 µM in experiment [2], 247 ± 36.2 µM at α-Glucosidase (setting [3]) and 14.2 ± 1.33 µM with AGEs formation.
For the compound `COc1ccc(-c2cc3ccc(O)cc3oc2=O)cc1OC` [Compound 37, 7-Hydroxy-3-(3,4-dimethoxyphenyl)-coumarin], the IC50 in experiment [1] was 173 ± 42.6 µM; in experiment [2], more than 1000 µM; on α-Glucosidase (setting [3]), more than 1000 µM.
As to `O=c1oc2ccccc2cc1-c1ccc(Br)cc1` [Compound 40, 3-(4-brominephenyl)-coumarin], the IC50 was more than 1000 µM in experiment [1], more than 1000 µM in experiment [2], more than 1000 µM on α-Glucosidase (setting [3]) and 13 ± 0.4 µM with AGEs formation.
In the case of `O=c1oc2cc(O)ccc2cc1-c1ccc(Br)cc1` [Compound 44, 7-Hydroxy-3-(4-brominephenyl)-coumarin], the IC50 was more than 1000 µM in experiment [1], more than 1000 µM in experiment [2], more than 1000 µM at α-Glucosidase (setting [3]) and 7.51 ± 0.38 µM with AGEs formation.
Turning to `O=c1oc2c(O)cccc2cc1-c1ccc(Br)cc1` [Compound 45, 8-Hydroxy-3-(4-brominephenyl)-coumarin], the IC50 in experiment [1] is 488 ± 95 µM; in experiment [2], 596 ± 28.8 µM; at α-Glucosidase (setting [3]), more than 1000 µM; in the experiment on AGEs formation it was more than 1000 µM.
Take `O=c1oc2cc(O)cc(O)c2cc1-c1ccc(Br)cc1` [Compound 46, 5,7-Dihydroxy-3-(4-brominephenyl)-coumarin]: the IC50 is more than 1000 µM in experiment [1], more than 1000 µM in experiment [2], more than 1000 µM at α-Glucosidase (setting [3]) and 47.75 ± 0.15 µM with AGEs formation.
With `O=c1oc2c(O)c(O)ccc2cc1-c1ccc(Br)cc1` [Compound 47, 7,8-Dihydroxy-3-(4-brominephenyl)-coumarin], the IC50 in experiment [1] amounted to 2.37 ± 0.06 µM; in experiment [2], 688 ± 49.7 µM; on α-Glucosidase (setting [3]), 35.7 ± 0.48 µM; with AGEs formation, 299 ± 40.1 µM.
In the case of `COc1ccc(Cl)cc1C(=O)NCCc1ccc(S(=O)(=O)NC(=O)NC2CCCCC2)cc1` [Glibenclamide, reference compound], the Blood glucose concentration turned out to be 16.9 ± 4.3 mM with STZ-diabetic mice (0h); 7.2 ± 4.0 mM in the experiment with STZ-diabetic mice (1.5h); 6.9 ± 1.6 mM in the experiment on STZ-diabetic mice (3h); 6.7 ± 2.5 mM in the experiment on STZ-diabetic mice (5h); 6.5 ± 2.2 mM with STZ-diabetic mice (7h); 4.9 ± 2.5 mM with STZ-diabetic mice (9h). For the same compound, the Blood glucose concentration with normal mice (0h) worked out at 9.8 ± 1.5 mM; in the experiment with normal mice (1.5h) it was 6.4 ± 1.4 mM; in the experiment on normal mice (3h), 5.8 ± 0.8 mM; in the experiment with normal mice (5h), 5.0 ± 1.4 mM; in the experiment on normal mice (7h), 4.3 ± 0.6 mM; in the experiment with normal mice (9h), 4.1 ± 0.7 mM. Further, the “% Variation of glycemia” value in the experiment with STZ-diabetic mice (1.5h) is “(−55.28) %”; with STZ-diabetic mice (3h) it was “(−57.14) %”; in the experiment on STZ-diabetic mice (5h) it was “(−55.90) %”; in the experiment with STZ-diabetic mice (7h) it was “(−59.63) %”; with STZ-diabetic mice (9h) it was “(−70.81) %”; in the experiment with normal mice (1.5h) it was “(−34.58) %”. Besides, the “% Variation of glycemia” value is on record as “(−41.36) %” in the experiment with normal mice (3h), “(−49.15) %” in the experiment with normal mice (5h), “(−56.61) %” in the experiment with normal mice (7h) and “(−58.31) %” with normal mice (9h). In addition, in the experiment on STZ-diabetic mice (STZ-induced diabetic mice, 10 mg/kg of bw), the “time of maximum hypoglycemic effect” value stood at 9 h.

These data come from PMC6211316, “Synthesis and biological evaluation of 3-arylcoumarin derivatives as potential anti-diabetic agents” (Journal of Enzyme Inhibition and Medicinal Chemistry, 2018).
